Laboratory results as given in ChEMBL document CHEMBL1139524, “Decoys for docking” (J Med Chem, 2005).

How the values were obtained:
Endolysin [1] = molecular target: Endolysin (Enterobacteria phage T4, UniProt P00720, L99A/M102Q); assay: Dissociation constant against T4 lysozyme mutant L99A/M102Q; set-up: species or system Tequatrovirus T4
Endolysin [2] = molecular target: Endolysin (Enterobacteria phage T4, UniProt P00720, L99A); set-up: species or system Tequatrovirus T4
Beta-lactamase [3] = molecular target: T1, Beta-lactamase (Escherichia coli K-12, UniProt P00811); assay: Apparent inhibitory constant against beta-lactamase AmpC from Escherichia coli
Beta-lactamase [4] = molecular target: T1, Beta-lactamase; assay: Inhibitory constant against beta-lactamase AmpC from Escherichia coli

T1 sequence (P00811 whole entry): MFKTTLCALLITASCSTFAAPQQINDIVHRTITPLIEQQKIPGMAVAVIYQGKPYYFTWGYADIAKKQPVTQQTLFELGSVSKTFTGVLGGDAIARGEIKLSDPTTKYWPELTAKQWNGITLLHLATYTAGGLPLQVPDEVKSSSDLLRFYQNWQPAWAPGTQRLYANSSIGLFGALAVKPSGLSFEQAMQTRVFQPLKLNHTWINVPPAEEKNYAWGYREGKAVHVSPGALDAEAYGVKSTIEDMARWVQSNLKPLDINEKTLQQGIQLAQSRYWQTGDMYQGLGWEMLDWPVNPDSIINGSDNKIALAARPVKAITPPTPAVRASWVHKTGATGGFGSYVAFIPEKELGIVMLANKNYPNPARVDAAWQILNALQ

Nc1ccccc1F was tested, and the Kd (Endolysin [1]) was 100 µM.
In the case of CCc1ccc(C)cc1, the Kd (Endolysin [2]) is reported as 120 µM.
Work on CCCc1ccccc1 yielded a Kd (Endolysin [2]) of 18 µM.
In the case of CCc1cccc(C)c1, the Kd (Endolysin [2]) is reported as 198 µM.
For CCc1ccccc1C, the Kd (Endolysin [2]) was 505 µM.
With NS(=O)(=O)c1ccc(NS(=O)(=O)c2ccsc2C(=O)O)cc1 the Ki (Beta-lactamase [3]) was 93 µM.
O=C(O)c1sccc1S(=O)(=O)Nc1ccc(Cl)cc1 gave a Ki (Beta-lactamase [4]) of 26 µM.
In the case of Oc1cccc(Cl)c1, the Kd (Endolysin [1]) is reported as 56 µM.
Cc1cc[nH]c1 gave a Kd (Endolysin [1]) of 159 µM.
In the case of c1ccc2occc2c1 [BENZOFURAN], the Kd (Endolysin [2]) is reported as 112 µM.
In the case of c1ccc2sccc2c1 [BENZOTHIOPHENE], the Kd (Endolysin [2]) is reported as 74 µM.
For C1=Cc2ccccc2C1 [INDENE], the Kd (Endolysin [2]) was 193 µM.
Cc1cccc(C)c1 [M-XYLENE] was tested, and the Kd (Endolysin [2]) was 364 µM.
